melting point | SMILES
144 °C | Cc1cc(C)cc(Nc2ncc(-c3ccccc3)s2)c1 [Compound 2-3, N-(3,5-dimethylphenyl)-5-phenyl-1,3-thiazol-2-amine]
203 °C | FC(F)(F)c1cc(Nc2ncc(-c3ccccc3)o2)cc(C(F)(F)F)c1 [Compound 5-6, N-[3,5-bis(trifluoromethyl)-phenyl]-5-phenyl-1,3-oxazol-2-amine]
152 °C | c1ccc(-c2cnc(Nc3ccc4c(c3)CCC4)o2)cc1 [Compound 5-5, N-(2,3-dihydro-1H-inden-5-yl)-5-phenyl-1,3-oxazol-2-amine]
169 to 170 °C | c1ccc(Nc2ncc(-c3ccccc3)o2)cc1 [Compound 5-4, N,5-diphenyl-1,3-oxazol-2-amine]
